{"source": "patent US8716530B2", "about": "“Facially amphiphilic polyaryl and polyarylalkynyl polymers and oligomers and uses thereof” (The Trustess of the University of Pennsylvania, priority 2004, dated 2014)", "key": {"[1]": {"test_system": "E. coli", "test": "Modified NCCLS microbroth dilution MIC assay", "type": "cell-based", "settings": "Escherichia coli"}, "[2]": {"test_system": "Klebsiella pneumoniae", "type": "cell-based"}, "[3]": {"test_system": "Moraxella catarrhalis", "type": "cell-based"}, "[4]": {"test_system": "Proteus vulgaris", "type": "cell-based"}, "[5]": {"test_system": "Salmonella typhimurium", "type": "cell-based"}, "[6]": {"test_system": "Haemophilus influenzae", "test": "MIC100, clinical isolates of hospital-acquired pathogens (Table 7)", "type": "cell-based", "settings": "Mueller Hinton+NAD+yeast extract+hematin, in µg/mL"}, "[7]": {"test_system": "Streptococcus pyogenes", "test": "MIC100, clinical isolates of hospital-acquired pathogens (Table 7)", "type": "cell-based", "settings": "Mueller Hinton+2-5% lysed horse blood, in µg/mL"}, "[8]": {"test_system": "Aspergillus fumigatus", "test": "Antifungal MIC/MFC, NCCLS M38-A", "type": "cell-based", "experimental": "(§1) MIC endpoints were determined for A. fumigatus, P. funiculosum, C. globosum and T. virens according to current NCCLS guidelines defined for testing A. fumigatus (NCCLS M38-A, 2002). […] Amphotericin B was included in the screen with C. albicans as a positive control. All MIC testing was done in 96 well microtiter panels using RPMI 1640 (with glutamine and without bicarbonate) broth as a growth media. Incubation was at 35° C., and growth was read at 48, 72, (and for some slow growing fungal species, 96 hours). […] MFC (minimal fungicidal concentrations) endpoints were calculated using a modified methodology based on the NCCLS defined methodology for measuring minimal bactericidal concentrations (MBC). Experimentation to calculate MFCs was undertaken only for those organisms for which an MIC endpoint was satisfactorily calculated. MFCs are defined as the concentration required to reduce the number of viable organisms by at least 90%."}, "[9]": {"test_system": "Chaetomium globosum", "test": "Antifungal MIC/MFC, NCCLS M38-A", "type": "cell-based", "experimental": "as §1"}, "[10]": {"test_system": "Penicillium funiculosum", "test": "Antifungal MIC/MFC, NCCLS M38-A", "type": "cell-based", "experimental": "as §1"}, "[11]": {"test_system": "Trichoderma virens", "test": "Antifungal MIC/MFC, NCCLS M38-A", "type": "cell-based", "experimental": "as §1"}, "[12]": {"test_system": "K. pneumonia", "test": "Modified NCCLS microbroth dilution MIC assay", "settings": "Klebsiella pneumoniae, read-out: K. pneumonia MIC"}, "[13]": {"settings": "concentration reducing viable organisms by at least 90%"}}, "note": "Several values for one entry are separate records, joined by “and”; a condition that tells them apart may be missing. Identical values can stand only once.", "data": [{"smiles": "NCCc1cc(Br)cc(C#Cc2cccc(C#Cc3cc(Br)cc(CCN)c3)c2)c1", "note": "[Compound 3]", "values": [{"measurement": "MIC90", "setting": "[1]; read-out: MIC90 E. Coli", "result": 0.8, "unit": "µg/mL"}, {"measurement": "MIC", "setting": "[1]; 18 to 20 hours incubation, OD 600 nm", "result": 0.8, "unit": "µg/mL"}, {"measurement": "MBC", "setting": "[1]; E. coli D31, defined as >3 log reduction in bacterial titre", "result": 0.8, "unit": "µg/mL"}, {"measurement": "MIC100 Klebsiella pneumoniae", "setting": "[2]", "result": 1.7, "unit": "µg/mL"}, {"measurement": "MIC100 Moraxella catarrhalis", "setting": "[3]", "result": 0.84, "unit": "µg/mL"}, {"measurement": "MIC100 Proteus vulgaris", "setting": "[4]", "result": 3.4, "unit": "µg/mL"}, {"measurement": "MIC100 Salmonella typhimurium", "setting": "[5]", "result": 3.4, "unit": "µg/mL"}, {"measurement": "mic (MIC100) Haemophilus influenzae", "setting": "[6]", "result": 4}, {"measurement": "mic (MIC100) Streptococcus pyogenes", "setting": "[7]", "result": "2 and 4"}, {"measurement": "MIC Aspergillus fumigatus", "setting": "[8]; RPMI 1640, 35° C.", "result": "32/32"}, {"measurement": "MFC Aspergillus fumigatus", "setting": "[8]; [13]", "result": "32/32"}, {"measurement": "MIC Chaetomium globosum", "setting": "[9]; RPMI 1640, 35° C.", "result": 0.5, "unit": "µg/mL"}, {"measurement": "MFC Chaetomium globosum", "setting": "[9]; [13]", "result": 8, "unit": "µg/mL"}, {"measurement": "MIC Penicillium funiculosum", "setting": "[10]; RPMI 1640, 35° C.", "result": 1, "unit": "µg/mL"}, {"measurement": "MFC Penicillium funiculosum", "setting": "[10]; [13]", "result": 2, "unit": "µg/mL"}, {"measurement": "MIC Trichoderma virens", "setting": "[11]; RPMI 1640, 35° C.", "result": "32/32"}, {"measurement": "MFC Trichoderma virens", "setting": "[11]; [13]", "result": "32/32"}, {"measurement": "MIC", "setting": "[12]", "result": 1.7, "unit": "µg/mL"}]}]}
